Here are results for twelve molecules from publication PMC9696366, “Flavones, Flavonols, Lignans, and Caffeic Acid Derivatives from Dracocephalum moldavica and Their In Vitro Effects on Multiple Myeloma and Acute Myeloid Leukemia” (International Journal of Molecular Sciences, 2022).

What all share (format): cell-based
Data set [1] has as its system Molm-13 cells. As to the kind of experiment: Proliferation, modified MTT assay (EZ4U) on AML cells. The settings on record: Molm-13, 2.5 µM, 48 h, positive control. How it is done: Proliferation was measured using a modified MTT assay (EZ4U kit, Biomedica, Vienna, Austria) according to the manufacturer’s instructions. In brief, 2.5 × 10^4 (Molm-13)—5.0 × 10^4 cells (KMS-12-PE cells) were seeded in 96-well plates and substances were added as indicated. Different concentrations are due to the different doubling time of the cells (24 h vs. 48 h). Cells were incubated for 48 h and during the last 7 h of incubation, 3-(4,5-dimethylthiazol-2-yl)-2,5-diphenyltetrazolium bromide was added as a substrate. Reduction of the tetrazolium salt to formazan by the mitochondrial activity of the growing cells was measured as optical density at 492 nm (with 620 nm as reference) on a plate reader. Proliferation (mean +/− SD) was calculated as the percentage of control (without substances). Concentrations used were 10 µM/5 µM/2.5 µM for all substances. Gilteritinib was used as a positive control at 2.5 µM.
(Tetrazolium dyes change colour on reduction, which living cells bring about.)

For data set [2], the system named is Molm-13 cells. As to the kind of experiment: Apoptosis measurement (AnnexinV/PI staining) on AML cells. The note with it: for EC50 / viability at 12.5 µM / viability at 25 µM / viability at 50 µM: Homo sapiens; for EC50: MOLM-13, 48 h, best-fit model; for viability at 12.5 µM: Molm-13, 12.5 µM; for viability at 12.5 µM / viability at 25 µM / viability at 50 µM: 48 h, read-out: % Alive (cells alive of control); for viability at 25 µM: Molm-13, 25 µM; for viability at 50 µM: Molm-13, 50 µM; for Cytotoxic effect / induction of apoptosis (in words): Molm-13, 12.5-50 µM. On the procedure: (§1) Cytotoxicity was measured as induction of apoptosis in myeloma cell line KMS-12-PE and AML cell line Molm-13, staining the cells with AnnexinV-fluorescein isothiocyanate (AnnexinV-FITC) and propidium iodide (PI). Cell lines were purchased from DSMZ (Braunschweig, Germany) and routinely fingerprinted and tested for mycoplasma negativity. All cell lines were grown in RPMI-1640 medium (Life Technologies, Paisley, UK), and supplemented with 10% fetal calf serum (FCS; PAA, Linz, Austria), L-glutamine 100 µg/mL, and penicillin-streptomycin 100 U/mL. Compounds were dissolved in DMSO at a stock concentration of 50 mM and stored at −20 °C. Briefly, 0.5 × 10^6 cancer cells/mL were incubated for 24 h and 48 h with or without the tested compounds at indicated concentrations. Analyses were performed in duplicates and a solvent control was included. The extent of non-apoptotic cells (AnnexinV/propidium iodide negativity) was calculated as the percentage of viable cells in respect to the untreated control. Data are shown as the mean percentage of viable cells +/− standard deviation (SD) (error bars).

The test system of the next data set is KMS-12-PE cells. As to the kind of experiment: Apoptosis measurement (AnnexinV/PI staining) on myeloma cells. The settings on record: for Cytotoxic effect / induction of apoptosis (in words): 12.5-50 µM; for viability at 12.5 µM / viability at 25 µM / viability at 50 µM / EC50: 48 h; for viability at 12.5 µM / viability at 25 µM / viability at 50 µM: read-out: % Alive (cells alive of control); for EC50: best-fit model. On the procedure: as §1

The term EC50 denotes the concentration giving half of the maximal effect. Low readings indicate an effect from little substance, high ones a need for much substance.

Consider `CCc1nc(C(N)=O)c(Nc2ccc(N3CCC(N4CCN(C)CC4)CC3)c(OC)c2)nc1NC1CCOCC1` [gilteritinib, reference compound], for which the “Effect on proliferation (in words)” value in the data set on Molm-13 cells [1] was “high effect”.

For the molecule `O=c1c(O)c(-c2ccc(O)cc2)oc2cc(O)cc(O)c12` [Compound 7, kaempferol], in the data set with Molm-13 cells [2], the 50% effective concentration (EC50) is greater than 50 µM, the viability at 12.5 µM worked out at 93.1 ± 5.1%, the viability at 25 µM was 83.1 ± 5.7% and the viability at 50 µM was found to be 50.2 ± 11.4%. Also, in the data set on Molm-13 cells [2], the “Cytotoxic effect / induction of apoptosis (in words)” value (shortened to “Cytotoxic effect / induction”) is recorded as “induced apoptosis”. In the data set on KMS-12-PE cells, the “Cytotoxic effect / induction” value is given as “induced apoptosis”. Also, in the data set on KMS-12-PE cells (Homo sapiens), the viability at 12.5 µM was found to be 98 ± 2.7%, the viability at 25 µM was 91.2 ± 15%, the viability at 50 µM was 76.3 ± 17.3% and the EC50 was greater than 50 µM.

In the case of `COc1ccc(-c2cc(=O)c3c(O)cc(O)cc3o2)cc1O` [Compound 6, diosmetin], in the data set on Molm-13 cells [2], the EC50 was greater than 50 µM, the viability at 12.5 µM came out at 91.5 ± 2.8%, the viability at 25 µM turned out to be 76.2 ± 6.7% and the viability at 50 µM stood at 39.8 ± 5.8%. This molecule also returned a 50% effective concentration (EC50) with KMS-12-PE cells of 25.7 µM. Further, in the data set on KMS-12-PE cells (Homo sapiens), the viability at 12.5 µM was 77.3 ± 6.9%, the viability at 25 µM worked out at 44.2 ± 19%, the viability at 50 µM was determined as 31.1 ± 5.3% and the 50% effective concentration (EC50) worked out at 26 µM.

Turning to `O=C(/C=C/c1ccc(O)c(O)c1)O[C@H](Cc1ccc(O)c(O)c1)C(=O)O` [Compound 12, (R)-(+)-rosmarinic acid], in the data set on Molm-13 cells [2], the EC50 is greater than 50 µM, the viability at 12.5 µM is 97.6 ± 3.2%, the viability at 25 µM amounted to 98.5 ± 3.6% and the viability at 50 µM was found to be 100.8 ± 0.6%. In the data set with KMS-12-PE cells (Homo sapiens), the viability at 12.5 µM amounted to 100.2 ± 0.9%, the viability at 25 µM is 102 ± 1.5%, the viability at 50 µM amounted to 98.2 ± 1.5% and the EC50 was greater than 50 µM.

As to `O=C(O)/C=C/c1ccc(O)c(O)c1` [Compound 11, caffeic acid], in the data set on Molm-13 cells [2], the concentration for a half-maximal effect (EC50) was greater than 50 µM, the viability at 12.5 µM was determined as 96.9 ± 4.6%, the viability at 25 µM was 98.1 ± 3.8% and the viability at 50 µM turned out to be 98.8 ± 2.8%. Moreover, in the data set on KMS-12-PE cells (Homo sapiens), the viability at 12.5 µM was found to be 102 ± 1.8%, the viability at 25 µM is 102.5 ± 0.9%, the viability at 50 µM was determined as 102.6 ± 0.5% and the EC50 is greater than 50 µM.

As for `COc1ccc(-c2cc(=O)c3c(O)c(OC)c(OC)cc3o2)cc1OC` [Compound 2, 5-desmethylsinensetin], in the data set with Molm-13 cells [2], the EC50 is greater than 50 µM, the viability at 12.5 µM came to 91.1 ± 3.4%, the viability at 25 µM is 90.9 ± 0.4% and the viability at 50 µM was 88.6 ± 1.8%. In the data set on Molm-13 cells [2], the “Cytotoxic effect / induction” value is given as “no effects”. Further, in the data set with KMS-12-PE cells, the “Cytotoxic effect / induction” value was “no effects”. In the data set with KMS-12-PE cells (Homo sapiens), the viability at 12.5 µM was 94.6 ± 10.2%, the viability at 25 µM was found to be 93.4 ± 9.3%, the viability at 50 µM turned out to be 93.1 ± 10.2% and the concentration for a half-maximal effect (EC50) is greater than 50 µM.

As to `COc1cc([C@H]2OC[C@H]3[C@@H]2CO[C@@H]3c2ccc3c(c2)OCO3)ccc1O` [Compound 9, (+)-piperitol], in the data set on Molm-13 cells [2], the half-maximal effective concentration (EC50) is greater than 50 µM, the viability at 12.5 µM was 102 ± 1.3%, the viability at 25 µM came to 100 ± 2.1% and the viability at 50 µM was 97.5 ± 2.4%. Besides, in the data set with KMS-12-PE cells (Homo sapiens), the viability at 12.5 µM worked out at 102.8 ± 0.8%, the viability at 25 µM was found to be 100.1 ± 0.8%, the viability at 50 µM was 97.1 ± 4.1% and the half-maximal effective concentration (EC50) is greater than 50 µM.

With `O=c1cc(-c2ccc(O)cc2)oc2cc(O)cc(O)c12` [Compound 4, apigenin], in the data set on Molm-13 cells [2], the EC50 was greater than 50 µM, the viability at 12.5 µM worked out at 98 ± 1.6%, the viability at 25 µM came to 89.5 ± 3.9% and the viability at 50 µM is 58.4 ± 14.2%. In addition, in the data set on KMS-12-PE cells (Homo sapiens), the viability at 12.5 µM came to 85.5 ± 10.6%, the viability at 25 µM was 69.4 ± 31.3%, the viability at 50 µM was found to be 59.6 ± 16.1% and the 50% effective concentration (EC50) is greater than 50 µM.

For `COc1cc(/C=C/C(=O)O[C@H](Cc2ccc(O)c(O)c2)C(=O)O)ccc1O` [Compound 13, (R)-(+)-3′-O-methylrosmarinic acid], in the data set with Molm-13 cells [2], the EC50 is greater than 50 µM, the viability at 12.5 µM is 99.6 ± 2.6%, the viability at 25 µM is 99.4 ± 1.9% and the viability at 50 µM amounted to 97.8 ± 4%. Besides, in the data set with KMS-12-PE cells (Homo sapiens), the viability at 12.5 µM turned out to be 102 ± 1.6%, the viability at 25 µM was 101 ± 1.8%, the viability at 50 µM was 101 ± 3.4% and the half-maximal effective concentration (EC50) was greater than 50 µM.

As to `O=c1c(O)c(-c2ccc(O)c(O)c2)oc2cc(O)cc(O)c12` [Compound 8, quercetin], in the data set with Molm-13 cells [2], the EC50 is greater than 50 µM, the viability at 12.5 µM turned out to be 100 ± 2.2%, the viability at 25 µM was 94.4 ± 3.9% and the viability at 50 µM came out at 79.8 ± 10.2%. The “Cytotoxic effect / induction” value in the data set on Molm-13 cells [2] was “induced apoptosis”. In addition, the “Cytotoxic effect / induction” value in the data set with KMS-12-PE cells is reported as “induced apoptosis”. Also, in the data set with KMS-12-PE cells (Homo sapiens), the viability at 12.5 µM was determined as 96.6 ± 2.7%, the viability at 25 µM stood at 79 ± 4.8%, the viability at 50 µM worked out at 43.7 ± 8.3% and the EC50 is greater than 50 µM.

On to `O[C@@H]1O[C@H](c2ccc3c(c2)OCO3)[C@H]2CO[C@H](c3ccc4c(c3)OCO4)[C@H]21` [Compound 10, (+)-9α-hydroxysesamin], for which, in the data set on Molm-13 cells [2], the EC50 is greater than 50 µM, the viability at 12.5 µM turned out to be 101 ± 1.4%, the viability at 25 µM turned out to be 100 ± 2% and the viability at 50 µM came to 98.7 ± 1.7%. In the data set on KMS-12-PE cells (Homo sapiens), the viability at 12.5 µM amounted to 99 ± 0.6%, the viability at 25 µM stood at 96.7 ± 0.5%, the viability at 50 µM is 89.4 ± 0.8% and the concentration for a half-maximal effect (EC50) was greater than 50 µM.

Take `O=c1cc(-c2ccc(O)c(O)c2)oc2cc(O)cc(O)c12` [Compound 5, luteolin]: in the data set with Molm-13 cells [2], a half-maximal response (EC50) required 42.3 µM, the viability at 12.5 µM is 86.5 ± 5.2%, the viability at 25 µM worked out at 72.4 ± 4% and the viability at 50 µM is 30.2 ± 13.7%. Also, in the data set with KMS-12-PE cells (Homo sapiens), the viability at 12.5 µM was determined as 80.3 ± 5.4%, the viability at 25 µM was 70.5 ± 5.6%, the viability at 50 µM came to 50.3 ± 18.4% and the EC50 is greater than 50 µM.
